Assay results taken from patent US20230278972A1, “SUBSTITUTED HALOALKYL SULFONANILIDE HERBICIDES” (FMC Corporation, priority 2020, published 2023).
Read-outs that look alike come from different tables or passages of the source.

Key:
[1] = test system: barnyardgrass (Echinochloa crus-galli); test: Test A preemergence, barnyardgrass; format: in vivo; settings: Echinochloa crus-galli, pre-emergence, 240 h, Preemergence; for pest or weed control at 125 g/ha: 125 g ai/ha; for pest or weed control at 500 g/ha: 500 g ai/ha
How it was run: (§1)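 Preemergence: seeded pots of loam plus sand received a directed soil spray. Postemergence: seedlings at one to two leaves, 2 to 10 cm high, were oversprayed. Each compound was formulated in a non-phytotoxic solvent mix that included a surfactant.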

kochia (Bassia scoparia) = test: Test A preemergence, kochia; format: in vivo; settings: Bassia scoparia, pre-emergence, 240 h, Preemergence; for pest or weed control at 125 g/ha: 125 g ai/ha; for pest or weed control at 500 g/ha: 500 g ai/ha
How it was run: as §1

[2] = test system: Foxtail, Giant (giant foxtail, Setaria faberi); test: Test A preemergence, Foxtail, Giant; format: in vivo; settings: Setaria faberi, pre-emergence, 240 h, Preemergence; for pest or weed control at 125 g/ha: 125 g ai/ha; for pest or weed control at 500 g/ha: 500 g ai/ha
How it was run: as §1

[3] = test system: pigweed (Amaranthus retroflexus); test: Test A postemergence, pigweed; format: in vivo; settings: Amaranthus retroflexus, post-emergence, 240 h, Postemergence, 0 to 100 scale (0 no effect, 100 complete control); for pest or weed control at 125 g/ha: 125 g ai/ha; for pest or weed control at 500 g/ha: 500 g ai/ha
How it was run: as §1

rice (Oryza sativa) = test: Test B flooded paddy test, rice; settings: 336 h, read-out: Plant response rating, Rice
[4] = visual injury on 0 to 100 scale (0 no effect, 100 complete control), approximately 10 days, read-out: Barnyardgrass plant response rating
[5] = 0 to 100 scale (0 no effect, 100 complete control), read-out: Plant response rating, Barnyardgrass
[6] = visual injury on 0 to 100 scale (0 no effect, 100 complete control), approximately 10 days, read-out: Kochia plant response rating
[7] = 0 to 100 scale (0 no effect, 100 complete control), read-out: Plant response rating, Kochia
[8] = visual injury on 0 to 100 scale (0 no effect, 100 complete control), approximately 10 days, read-out: Foxtail, Giant plant response rating
[9] = 0 to 100 scale (0 no effect, 100 complete control), read-out: Plant response rating, Foxtail, Giant
[10] = visual injury approx. 10 days, read-out: Plant response rating, Pigweed
[11] = visual injury vs untreated controls after approx. 10 days, read-out: Pigweed plant response rating
[12] = visual injury, approx. 10 days, read-out: Plant response rating, Pigweed
[13] = visual injury, 0 to 100 scale (0 no effect, 100 complete control), approx. 10 days, read-out: Plant response rating, Barnyardgrass
[14] = visual injury, 0 to 100 scale (0 no effect, 100 complete control), approx. 10 days, read-out: Plant response rating, Kochia
[15] = visual injury, 0 to 100 scale (0 no effect, 100 complete control), approx. 10 days, read-out: Plant response rating, Foxtail, Giant
[16] = read-out: Plant response rating, Pigweed

| SMILES | pest or weed control at 125 g/ha [1, 4] [%] | pest or weed control at 500 g/ha [1, 5] [%] | pest or weed control at 125 g/ha (kochia (Bassia scoparia); [6]) [%] | pest or weed control at 500 g/ha (kochia (Bassia scoparia); [7]) [%] | pest or weed control at 125 g/ha [2, 8] [%] | pest or weed control at 500 g/ha [2, 9] [%] | pest or weed control at 125 g/ha [3, 10] [%] | pest or weed control at 500 g/ha [3, 11] [%] | plant injury at 250 g/ha (rice (Oryza sativa)) [%] | pest or weed control at 500 g/ha [3, 12] [%] | pest or weed control at 125 g/ha [1, 13] [%] | pest or weed control at 125 g/ha (kochia (Bassia scoparia); [14]) [%] | pest or weed control at 500 g/ha (kochia (Bassia scoparia); [6]) [%] | pest or weed control at 125 g/ha [2, 15] [%] | pest or weed control at 500 g/ha [2, 8] [%] | pest or weed control at 125 g/ha [3, 16] [%] |
| --- | --- | --- | --- | --- | --- | --- | --- | --- | --- | --- | --- | --- | --- | --- | --- | --- |
| Cc1cc(C)c(C2=NOC3CCOCC23)cc1NS(=O)(=O)C(F)(F)F (stereo not drawn) [Compound 120, N-[2,4-Dimethyl-5-(3a,6,7,7a-tetrahydro-4H-pyrano[3,4-d]isoxazol-3-yl)phenyl]-1,1,1-trifluoromethanesulfonamide] | 90 | 100 | 90 | 100 | 100 | 100 | 60 | 90 | 0 |  |  |  |  |  |  |  |
| Cc1cc(C)c(C2=NO[C@@H]3CCC[C@H]23)cc1NS(=O)(=O)C(F)(F)F [Compound 103, N-[2,4-Dimethyl-5-[(3aR,6aR)-3a,5,6,6a-tetrahydro-4H-cyclopent[d]isoxazol-3-yl]phenyl]-1,1,1-trifluoromethanesulfonamide] | 90 | 90 | 80 | 90 | 90 | 100 | 80 | 80 | 25 |  |  |  |  |  |  |  |
| Cc1cc(C)c(N(COC(=O)C(C)(C)C)S(=O)(=O)C(F)(F)F)cc1C1=NO[C@@H]2CCC[C@H]12 [Compound 100, [[2,4-Dimethyl-5-[(3aR,6aR)-3a,5,6,6a-tetrahydro-4H-cyclopent[d]isoxazol-3-yl]phenyl][(trifluoromethyl)sulfonyl]amino]methyl 2,2-dimethylpropanoate] | 70 | 90 | 60 | 80 | 40 | 90 | 60 | 90 | 20 |  |  |  |  |  |  |  |
| Cc1cc(Cl)c(NS(=O)(=O)C(F)(F)F)cc1C(=O)N1CCOCC1 [Compound 16, N-[2-Chloro-4-methyl-5-(4-morpholinylcarbonyl)phenyl]-1,1,1-trifluoromethanesulfonamide] | 90 | 100 | 90 | 90 | 30 | 100 | 70 |  | 0 | 90 |  |  |  |  |  |  |
| Cc1cc(Cl)c(NS(=O)(=O)C(F)(F)F)cc1C(=O)N1CCC(F)(F)CC1 [Compound 229, N-[2-Chloro-5-[(4,4-difluoro-1-piperidinyl)carbonyl]-4-methylphenyl]-1,1,1-trifluoromethanesulfonamide] |  | 90 |  |  |  |  |  | 100 | 10 |  | 70 | 80 | 100 | 60 | 100 | 80 |
| Cc1cc(C)c(C2=NOC3(CCCC3)C2)cc1NS(=O)(=O)C(F)(F)F [Compound 207, N-[2,4-Dimethyl-5-(1-oxa-2-azaspiro[4.4]non-2-en-3-yl)phenyl]-1,1,1-trifluoromethanesulfonamide] |  | 90 |  | 90 |  | 100 |  | 70 | 0 |  | 90 | 90 |  | 90 |  | 50 |
| Cc1c(NS(=O)(=O)C(F)(F)F)cc(C(=O)N(C)C)c(C)c1F [Compound 128, 3-Fluoro-N,N,2,4-tetramethyl-5-[[(trifluoromethyl)sulfonyl]amino]benzamide] | 100 | 100 | 80 | 80 | 50 | 100 | 60 | 90 | 0 |  |  |  |  |  |  |  |
| Cc1cc(C)c(N(COC(=O)C(C)(C)C)S(=O)(=O)C(F)(F)F)cc1C1=NOC2(CCCC2)C1 [Compound 140, [[2,4-Dimethyl-5-(1-oxa-2-azaspiro[4.4]non-2-en-3-yl)phenyl][(trifluoromethyl)sulfonyl]amino]methyl 2,2-dimethylpropanoate] | 40 | 100 | 0 | 70 | 20 | 90 |  | 80 | 0 |  |  |  |  |  |  | 10 |
| CCc1cc(-c2cc(NS(=O)(=O)C(F)(F)F)c(C)cc2C)c(=O)n(C)n1 [Compound 34, N-[5-(6-Ethyl-2,3-dihydro-2-methyl-3-oxo-4-pyridazinyl)-2,4-dimethylphenyl]-1,1,1-trifluoromethanesulfonamide] | 0 | 0 | 30 | 70 | 0 | 30 | 0 |  | 0 | 0 |  |  |  |  |  |  |
| Cc1cc(C)c(C2=NOC3COCCC23)cc1NS(=O)(=O)C(F)(F)F (stereo not drawn) [Compound 121, N-[2,4-Dimethyl-5-(3a,4,7,7a-tetrahydro-5H-pyrano[4,3-d]isoxazol-3-yl)phenyl]-1,1,1-trifluoromethanesulfonamide] | 90 | 90 | 90 | 90 | 100 | 100 | 70 | 90 | 20 |  |  |  |  |  |  |  |
| Cc1cc(Cl)c(NS(=O)(=O)C(F)(F)F)cc1C(=O)N1CCCCC1 [Compound 18, N-[2-Chloro-4-methyl-5-(1-piperidinylcarbonyl)phenyl]-1,1,1-trifluoromethanesulfonamide] | 100 | 100 | 10 | 60 | 100 | 100 | 40 |  | 0 | 90 |  |  |  |  |  |  |
| Cc1cc(C)c(C2=NOC3(CCCCC3)C2)cc1NS(=O)(=O)C(F)(F)F [Compound 197, N-[2,4-Dimethyl-5-(1-oxa-2-azaspiro[4.5]dec-2-en-3-yl)phenyl]-1,1,1-trifluoromethanesulfonamide] |  | 100 |  | 90 |  | 100 |  | 90 | 0 |  | 90 | 90 |  | 100 |  | 60 |
| Cc1c(NS(=O)(=O)C(F)(F)F)cc(C(=O)N2CCOCC2)c(C)c1F [Compound 190, 1,1,1-Trifluoro-N-[3-fluoro-2,4-dimethyl-5-(4-morpholinylcarbonyl)phenyl]methanesulfonamide] |  | 100 |  | 100 |  | 100 |  | 100 | 0 |  | 90 | 90 |  | 90 |  | 70 |
| Cc1cc(C)c(N(COC(=O)C(C)(C)C)S(=O)(=O)C(F)(F)F)cc1C1=NOC2(CCCCC2)C1 [Compound 159, [[2,4-Dimethyl-5-(1-oxa-2-azaspiro[4.5]dec-2-en-3-yl)phenyl][(trifluoromethyl)sulfonyl]amino]methyl 2,2-dimethylpropanoate] | 40 | 60 | 40 | 70 | 30 | 70 |  | 70 | 0 |  |  |  |  |  |  | 40 |
